Usually IC50 stands for the midpoint of a concentration-inhibition curve.

What all share (assay type): cell-based
Test [1] deals with Colo205 (ATCC CCL 222): human colon adenocarcinoma. In words: In vitro antitumor activity, MTT assay, Colo205. To be noted: for IC50: Homo sapiens, read-out: IC50 (Colo205); for IC50 (Colo205): Table 1, 48 hrs. The method, then:
(§1) In vitro antitumor activity against human tumor cell lines
(§2) In vitro antitumor activity of the compounds according to the present invention was determined by MTT assay method against the following human tumor cell lines:
Colo205 (ATCC CCL 222): human colon adenocarcinoma
(§3) In this test, the known antineoplastic compounds, Doxorubicin and Sulofenur, were used as the comparative agents.
(§4) Each of the tumor cells was cultured in RPMI 1640 media containing 10% fetal bovine serum, 100 IU/ml penicillin and 100 μg/ml streptomycin, and then periodically subcultured once or twice per week in trypsin-EDTA solution containing 0.05% trypsin and 0.53mM EDTA.4Na. The human tumor cell line thus obtained (10,000cells/100 μl) was plated on 96-well microplate and then cultured for 24 hrs at 37° C. in a 5% CO2 incubator. Test compound was dissolved in DMSO, sterilized with 0.22 μm PVDF filter, and then serially 5-fold diluted from 40 μg/ml to 0.00256μg/ml. 100 μl of the sample solution thus prepared and RPMI 1640 medium only (control group) were added to 96-well microplate containing the human tumor cell, respectively. The final concentration of the test compound was in the range from 20 μg/ml to 0.00128 μg/ml and the concentration of DMSO was below 0.5%. The cells were cultured for 48 hrs at 37° C. in a 5% CO2 incubator. MTT(3-(4,5-Dimethylthiazole-2-yl)-e,5-diphenyltetrazoliumbromide) was dissolved in physiological saline in a concentration of 2 mg/ml and the resulting solution was filtered through 0.22 μm PTFE filter. 25 μl of MTT solution thus prepared was added to each well of 96-well microplate and incubated for additional 4 hrs at 37° C. in a 5% CO2 incubator. Then, the content of microplate was centrifuged at 1000 rpm for 10 min, and supernatant was removed by flicking. The formazan formed from MTT by mitochondrial succinate dehydrogenase was dissolved in 100 μl of DMSO. The absorbance of each well was measured at 540nm by micro ELISA reader and the cytotoxicity was calculated by dividing the absorbance of test group by the absorbance of control group. After the calculated cytotoxicity (%) was plotted, the concentration of 50% tumor growth inhibition concentration (IC50) was estimated by Linear-Regression method.

The test system of test [2] is SK-OV-3 (ATCC HTB 77): human ovarian adenocarcinoma. In words: In vitro antitumor activity, MTT assay, SK-OV-3. To be noted: for IC50: Homo sapiens; for IC50 (SK-OV-3): Table 1, 48 hrs. As for the experimental part: as §1, §2
SK-OV-3 (ATCC HTB 77): human ovarian adenocarcinoma
as §3, §4
A general note: Formazan colour is commonly taken as a measure of viable cells.

For test [3], the system named is KB (ATCC CCL 17): human epidermoid carcinoma. The test can be described thus: In vitro antitumor activity, MTT assay, KB. To be noted: MTT, 48 hrs; for IC50: Homo sapiens, read-out: IC50 (KB). The method, then: as §1, §2
KB (ATCC CCL 17): human epidermoid carcinoma
as §3, §4

In test [4] the test system is A549 (ATCC CCL 185): human lung carcinoma. In words: In vitro antitumor activity, MTT assay, A549. The note with it: for IC50: Homo sapiens, A549, 48 h; for IC50 (A549): Table 1, 48 hrs. As for the experimental part: as §1, §2
A549 (ATCC CCL 185): human lung carcinoma
as §3, §4

Converted amounts (≈) assume the structure as drawn. Counter-ions that a name gives are not always drawn. Like-named read-outs stand apart in the source and are kept apart here. Some results are limits rather than exact numbers.

With `CC(C)NC(=O)N1c2ccc(S(=O)(=O)n3cc(-c4ccccc4)[nH]c3=O)cc2CC1C` (stereo not shown) [Example 7, 4-phenyl-1-(N-isopropylcarbamoyl-2-methylindoline-5-sulfonyl)-2-imidazolone], the IC50 in test [1] (COLO 205, Table 1, 48 hrs) stood at 0.102 µg/mL (≈ 0.232 µM); in test [2] (SK-OV-3, Table 1, 48 hrs), 1.07 µg/mL (≈ 2.43 µM); in test [3] (Table 1), 0.162 µg/mL (≈ 0.368 µM); in test [4] (Table 1), 0.105 µg/mL (≈ 0.238 µM).
As to `CC(C)(C)NC(=O)N1CCc2cc(S(=O)(=O)n3cc(-c4ccccc4)[nH]c3=O)ccc21` [Example 8, 4-phenyl-1-(N-t-butylcarbamoylindoline-5-sulfonyl)-2-imidazolone], the half-maximal inhibitory concentration (IC50) worked out at 0.549 µg/mL (≈ 1.25 µM) in test [1] (COLO 205, Table 1, 48 hrs); 2.67 µg/mL (≈ 6.07 µM) in test [2] (SK-OV-3, Table 1, 48 hrs); 0.002 µg/mL (≈ 0.00454 µM) in test [3] (Table 1); 0.02 µg/mL (≈ 0.0454 µM) in test [4] (Table 1).
Regarding `CC1Cc2cc(S(=O)(=O)n3cc(-c4ccccc4)[nH]c3=O)ccc2N1C(=O)c1ccc(NC(=O)CCl)cc1` (stereo not shown) [Example 20, 4-phenyl-1-[N-(4-chloroacetylaminobenzoyl)-2-methylindoline-5-sulfonyl]-2-imidazolone], the 50% inhibitory concentration (IC50) was determined as 0.91 µg/mL (≈ 1.65 µM) in test [1] (COLO 205, Table 2, 48 hrs); 0.598 µg/mL (≈ 1.09 µM) in test [2] (SK-OV-3, Table 2, 48 hrs); 0.198 µg/mL (≈ 0.359 µM) in test [3] (Table 2); 0.509 µg/mL (≈ 0.924 µM) in test [4] (Table 2).
Consider `CCCNC(=O)N1c2ccc(S(=O)(=O)n3cc(-c4ccccc4)[nH]c3=O)cc2CC1C` (stereo not shown) [Example 5, 4-phenyl-1-(N-propylcarbamoyl-2-methylindoline-5-sulfonyl)-2-imidazolone], for which the IC50 in test [1] (COLO 205, Table 1, 48 hrs) is 0.519 µg/mL (≈ 1.18 µM); in test [2] (SK-OV-3, Table 1, 48 hrs), 0.146 µg/mL (≈ 0.331 µM); in test [3] (Table 1) it was 0.105 µg/mL (≈ 0.238 µM); in test [4] (Table 1) it was 0.09 µg/mL (≈ 0.204 µM).
For the molecule `O=C(c1ccc(Cl)cc1)N1CCc2cc(S(=O)(=O)n3cc(-c4ccccc4)[nH]c3=O)ccc21` [Example 18, 4-phenyl-1-[N-(4-chlorobenzoyl)indoline-5-sulfonyl]-2-imidazolone], the IC50 is 2.05 µg/mL (≈ 4.27 µM) in test [1] (COLO 205, Table 2, 48 hrs); over 20 µg/mL in test [2] (SK-OV-3, Table 2, 48 hrs); 0.13 µg/mL (≈ 0.271 µM) in test [3] (Table 2); 0.607 µg/mL (≈ 1.26 µM) in test [4] (Table 2).
Taken in the same sequence, the figures for `CC(C)CNCC(=O)N1c2ccc(S(=O)(=O)n3cc(-c4ccccc4)[nH]c3=O)cc2CC1C` (stereo not shown) [Example 25, 4-phenyl-1-(N-isobutylaminoacetyl-2-methylindoline-5-sulfonyl)-2-imidazolone.HCl] were 3.07 µg/mL, 1.4 µg/mL, 0.246 µg/mL and 3.23 µg/mL.
On the same counts, the results for `CC(C)CNCC(=O)N1CCc2cc(S(=O)(=O)n3cc(-c4ccccc4)[nH]c3=O)ccc21` [Example 26, 4-phenyl-1-(N-isobutylaminoacetylindoline-5-sulfonyl)-2-imidazolone.HCl] are 9.09 µg/mL, 10.1 µg/mL, 1.99 µg/mL and 5.47 µg/mL.
Taken in the same sequence, the figures for `CC1Cc2cc(S(=O)(=O)n3cc(-c4ccccc4)[nH]c3=O)ccc2N1C(=O)CNC(C)(C)C` (stereo not shown) [Example 27, 4-phenyl-1-(N-t-butylaminoacetyl-2-methylindoline-5-sulfonyl)-2-imidazolone.HCl] were 5.68 µg/mL, 2.44 µg/mL, 0.317 µg/mL and 1.45 µg/mL.
In the case of `O=C(c1cccnc1)N1CCc2cc(S(=O)(=O)n3cc(-c4ccccc4)[nH]c3=O)ccc21` [Example 15, 4-phenyl-1-(N-nicotinylindoline-5-sulfonyl)-2-imidazolone], the IC50 is 0.382 µg/mL (≈ 0.856 µM) in test [1] (COLO 205, Table 1, 48 hrs); 0.446 µg/mL (≈ 0.999 µM) in test [2] (SK-OV-3, Table 1, 48 hrs); 0.015 µg/mL (≈ 0.0336 µM) in test [3] (Table 1); 0.112 µg/mL (≈ 0.251 µM) in test [4] (Table 1).
Taken in the same sequence, the figures for `CC1Cc2cc(S(=O)(=O)n3cc(-c4ccccc4)[nH]c3=O)ccc2N1C(=O)c1ccc([N+](=O)[O-])cc1` (stereo not shown) [Example 11, 4-phenyl-1-[N-(4-nitrobenzoyl)-2-methylindoline-5-sulfonyl]-2-imidazolone] were 1.11 µg/mL (≈ 2.2 µM), 0.453 µg/mL (≈ 0.898 µM), 0.64 µg/mL (≈ 1.27 µM) and 0.234 µg/mL (≈ 0.464 µM).
In the case of `CC(C)NCC(=O)N1CCc2cc(S(=O)(=O)n3cc(-c4ccccc4)[nH]c3=O)ccc21` [Example 24, 4-phenyl-1-(N-isopropylaminoacetylindoline-5-sulfonyl)-2-imidazolone.HCl], the IC50 is 3.35 µg/mL in test [1] (COLO 205, Table 2, 48 hrs); 8.77 µg/mL in test [2] (SK-OV-3, Table 2, 48 hrs); 0.879 µg/mL in test [3] (Table 2); 3.48 µg/mL in test [4] (Table 2).
Take `CCOC(=O)N1CCc2cc(S(=O)(=O)n3cc(-c4ccccc4)[nH]c3=O)ccc21` [Example 1, 4-phenyl-1-(N-ethoxycarbonylindoline-5-sulfonyl)-2-imidazolone]: the IC50 in test [1] (COLO 205, Table 1, 48 hrs) was 0.906 µg/mL (≈ 2.19 µM); in test [2] (SK-OV-3, Table 1, 48 hrs), 10.1 µg/mL (≈ 24.3 µM); in test [3] (Table 1), 0.017 µg/mL (≈ 0.0411 µM); in test [4] (Table 1), 0.374 µg/mL (≈ 0.905 µM).
For `Nc1ccc(C(=O)N2CCc3cc(S(=O)(=O)n4cc(-c5ccccc5)[nH]c4=O)ccc32)cc1` [Example 10, 4-phenyl-1-[N-(4-aminobenzoyl)indoline-5-sulfonyl]-2-imidazolone.HCl], the IC50 worked out at 0.334 µg/mL in test [1] (COLO 205, Table 1, 48 hrs); 0.529 µg/mL in test [2] (SK-OV-3, Table 1, 48 hrs); 0.0001 µg/mL in test [3] (Table 1); 0.23 µg/mL in test [4] (Table 1).
`O=C(c1cccs1)N1CCc2cc(S(=O)(=O)n3cc(-c4ccccc4)[nH]c3=O)ccc21` [Example 17, 4-phenyl-1-(N-thiophenoylindoline-5-sulfonyl)-2-imidazolone]: the “IC50 (Colo205)” value in test [1] was 0.386 µg/mL (≈ 0.855 µM). In addition, the “IC50 (SK-OV-3)” value in test [2] was found to be 0.729 µg/mL (≈ 1.61 µM). For the same molecule, the “IC50 (KB)” value in test [3] (Table 1) amounted to 8 ng/mL (≈ 0.0177 µM). The “IC50 (A549)” value in test [4] worked out at 0.046 µg/mL (≈ 0.102 µM).
For the molecule `O=C(c1ccco1)N1CCc2cc(S(=O)(=O)n3cc(-c4ccccc4)[nH]c3=O)ccc21` [Example 16, 4-phenyl-1-(N-furanoylindoline-5-sulfonyl)-2-imidazolone], the “IC50 (Colo205)” value in test [1] amounted to 0.460 µg/mL (≈ 1.06 µM). The “IC50 (SK-OV-3)” value in test [2] worked out at 2.074 µg/mL (≈ 4.76 µM). For the same molecule, the “IC50 (KB)” value in test [3] (Table 1) came out at 11 ng/mL (≈ 0.0253 µM). In test [4], the “IC50 (A549)” value was 0.065 µg/mL (≈ 0.149 µM).
Regarding `O=C(c1ccc([N+](=O)[O-])cc1)N1CCc2cc(S(=O)(=O)n3cc(-c4ccccc4)[nH]c3=O)ccc21` [Example 9, 4-phenyl-1-[N-(4-nitrobenzoyl)indoline-5-sulfonyl]-2-imidazolone], the IC50 in test [1] (COLO 205, Table 1, 48 hrs) was determined as 0.651 µg/mL (≈ 1.33 µM); in test [2] (SK-OV-3, Table 1, 48 hrs), 0.106 µg/mL (≈ 0.216 µM); in test [3] (Table 1) it was 0.045 µg/mL (≈ 0.0917 µM); in test [4] (Table 1), 0.528 µg/mL (≈ 1.08 µM).
Turning to `CCOc1ccc(C(=O)N2CCc3cc(S(=O)(=O)n4cc(-c5ccccc5)[nH]c4=O)ccc32)cc1` [Example 14, 4-phenyl-1-[N-(4-ethoxybenzoyl)indoline-5-sulfonyl]-2-imidazolone], the IC50 worked out at 1.28 µg/mL (≈ 2.62 µM) in test [1] (COLO 205, Table 1, 48 hrs); 0.926 µg/mL (≈ 1.89 µM) in test [2] (SK-OV-3, Table 1, 48 hrs); 0.107 µg/mL (≈ 0.219 µM) in test [3] (Table 1); 0.445 µg/mL (≈ 0.909 µM) in test [4] (Table 1).
As for `CCNC(=O)N1c2ccc(S(=O)(=O)n3cc(-c4ccccc4)[nH]c3=O)cc2CC1C` (stereo not shown) [Example 3, 4-phenyl-1-(N-ethylcarbamoyl-2-methylindoline-5-sulfonyl)-2-imidazolone], the IC50 was found to be 0.265 µg/mL (≈ 0.621 µM) in test [1] (COLO 205, Table 1, 48 hrs); 0.509 µg/mL (≈ 1.19 µM) in test [2] (SK-OV-3, Table 1, 48 hrs); 0.006 µg/mL (≈ 0.0141 µM) in test [3] (Table 1); 0.111 µg/mL (≈ 0.26 µM) in test [4] (Table 1).
On the same counts, the results for `O=C(c1ccccc1)N1CCc2cc(S(=O)(=O)n3cc(-c4ccccc4)[nH]c3=O)ccc21` [Example 13, 4-phenyl-1-(N-benzoylindoline-5-sulfonyl)-2-imidazolone] are 0.644 µg/mL (≈ 1.45 µM), 1.22 µg/mL (≈ 2.73 µM), 0.028 µg/mL (≈ 0.0629 µM) and 0.199 µg/mL (≈ 0.447 µM).
